Earlier results on 2 substances are cited in patent publication US5047247A, “Dispersible tablets of dihydroergotoxine methanesulfonate and of acid addition salts thereof” (LEK, priority 1988, dated 1991).

With dihydroergotoxine, the “solubility in water, in words” value was “poorly soluble in water”.

Take dihydroergotoxine methanesulphonate: the “solubility in water, in words” value was “poorly soluble in water”.
